Values quoted from earlier work in publication PMC3499999, “Advances in the Treatment of Malaria” (Mediterranean Journal of Hematology and Infectious Diseases, 2012).

Key:
severe malaria [1] = test system: severe malaria; set-up: method as in PMID 19059639; settings: rectal, over placebo, p=0.0013
severe malaria [2] = settings: artesunate versus quinine, systematic reviews, regardless of age and geographic differences
[3] = set-up: method as in PMID 22540954
[4] = set-up: method as in PMID 10661809; settings: high intramuscular doses, oil-based, beagle dogs
[5] = set-up: method as in PMID 20863871; settings: animals, only for long drug exposure; artemether and arteether intramuscularly, artelinic acid orally
[6] = set-up: method as in PMID 17461742
[7] = not given; remark: listed apart in the source
[8] = in vivo
P. falciparum = test system: P. falciparum; set-up: method as in earlier work; settings: 3-days course

Compound: C[C@H]1[C@H](OC(=O)CCC(=O)O)O[C@@H]2O[C@@]3(C)CC[C@H]4[C@H](C)CC[C@@H]1[C@@]24OO3 [artesunate]
- death or permanent disability, RR (severe malaria [1]): 0.49
- case fatality rate, RR (severe malaria [2]): 0.71
- median elimination T ½ [3]: 0.25 [0.11 – 1.82] hours
- half-life: < 1 h

Compound: CO[C@H]1O[C@@H]2O[C@@]3(C)CC[C@H]4[C@H](C)CC[C@@H]([C@H]1C)[C@@]24OO3 [artemether]
- half-life: 2 to 4 h
- QTc prolongation [4]: reported at significant level
- neurotoxicity [5]: Fatal neurotoxicity

Compound: COc1cc(C)c2c(Oc3cccc(C(F)(F)F)c3)c(OC)cc(NC(C)CCCN)c2n1 (stereo not drawn) [tefenoquine, tafenoquine]
- half-life compared with primaquine [6]: longer half-life

Compound: COc1cc(NC(C)CCCN/C(C)=C2\CCOC2=O)c2ncccc2c1 (stereo not drawn) [buloquine]
- oxidative toxicity compared with primaquine [7]: less oxidative toxicity

Compound: CCO[C@H]1O[C@@H]2O[C@@]3(C)CC[C@H]4[C@H](C)CC[C@@H]([C@H]1C)[C@@]24OO3 [arteether]
- QTc prolongation [4]: reported at significant level
- neurotoxicity [5]: Fatal neurotoxicity

Compound: C[C@H]1[C@@H](OCc2ccc(C(=O)O)cc2)O[C@@H]2O[C@@]3(C)CC[C@H]4[C@H](C)CC[C@@H]1[C@@]24OO3 [artelinic acid]
- neurotoxicity [5]: Fatal neurotoxicity

Compound: Atovaquone-proguanil
- risk of birth defects relative to the general population [8]: ≤ 3 times

Compound: COc1cc(NC(C)CCCN)c2ncccc2c1 (stereo not drawn) [primaquine]
- main safety concern ([7]; patients with glucose-6-phosphate dehydrogenase deficiency): risk of severe intravascular haemolysis

Compound: C[C@@H]1CC[C@H]2[C@@H](C)C(=O)O[C@@H]3O[C@@]4(C)CC[C@@H]1[C@]32OO4 [artemisinin]
- reduction of parasite burden (P. falciparum): 90%
